According to ChEMBL document CHEMBL5608184, “Discovery and mechanistic insights into thieno[3,2-d]pyrimidine and heterocyclic fused pyrimidines inhibitors targeting tubulin for cancer therapy” (Eur J Med Chem, 2024):

Legend:
Tubulin = assay: Binding affinity to CM5-chip immobilized tubulin (unknown origin) assessed as dissociation constant by SPR analysis; type: protein-complex assay, Homo sapiens
SK-OV-3 [1] = assay: Induction of cell cycle arrest at G2/M phase in human SK-OV-3 cells at 0.625 nM incubated for 24 hrs by PI staining based flow cytometry (reference value: 29.73 %); type: functional
SK-OV-3 [2] = assay: Induction of cell cycle arrest at G2/M phase in human SK-OV-3 cells at 2.5 nM incubated for 24 hrs by PI staining based flow cytometry (reference value: 29.73 %); type: functional
SK-OV-3 [3] = assay: Induction of cell cycle arrest at G2/M phase in human SK-OV-3 cells at 5 nM incubated for 24 hrs by PI staining based flow cytometry (reference value: 29.73 %); type: functional
SK-OV-3 [4] = assay: Induction of apoptosis in human SK-OV-3 cells assessed as viable cells at 0.625 nM incubated for 48 hrs by Annexin V-APC-A/7-AAD-A staining based flow cytometry (reference value: 97.17 %); type: functional; conditions: read-out: Activity
SK-OV-3 [5] = assay: Induction of apoptosis in human SK-OV-3 cells assessed as early apoptotic cells at 0.625 nM incubated for 48 hrs by Annexin V-APC-A/7-AAD-A staining based flow cytometry (reference value: 1.12 %); type: functional
SK-OV-3 [6] = assay: Induction of apoptosis in human SK-OV-3 cells assessed as viable cells at 1.25 nM incubated for 48 hrs by Annexin V-APC-A/7-AAD-A staining based flow cytometry (reference value: 97.17 %); type: functional; conditions: read-out: Activity
SK-OV-3 [7] = assay: Induction of apoptosis in human SK-OV-3 cells assessed as late apoptotic cells at 1.25 nM incubated for 48 hrs by Annexin V-APC-A/7-AAD-A staining based flow cytometry (reference value: 1.22 %); type: functional
SK-OV-3 [8] = assay: Induction of apoptosis in human SK-OV-3 cells assessed as necrotic cells at 1.25 nM incubated for 48 hrs by Annexin V-APC-A/7-AAD-A staining based flow cytometry (reference value: 0.48 %); type: functional
SK-OV-3 [9] = assay: Induction of apoptosis in human SK-OV-3 cells assessed as early apoptotic cells at 2.5 nM incubated for 48 hrs by Annexin V-APC-A/7-AAD-A staining based flow cytometry (reference value: 1.12 %); type: functional
SK-OV-3 [10] = assay: Induction of apoptosis in human SK-OV-3 cells assessed as late apoptotic cells at 2.5 nM incubated for 48 hrs by Annexin V-APC-A/7-AAD-A staining based flow cytometry (reference value: 1.22 %); type: functional
SK-OV-3 [11] = assay: Induction of apoptosis in human SK-OV-3 cells assessed as necrotic cells at 2.5 nM incubated for 48 hrs by Annexin V-APC-A/7-AAD-A staining based flow cytometry (reference value: 0.48 %); type: functional
SK-OV-3 [12] = assay: Inhibition of cell migration in human SK-OV-3 cells assessed as relative wound density at 0.625 nM incubated for 24 hrs by wound healing assay (reference value: 74.53 %); type: functional; parameters: scale not given: the % may be the effect or the level left
SK-OV-3 [13] = assay: Induction of cell cycle arrest at G2/M phase in human SK-OV-3 cells at 0.625 nM incubated for 24 hrs by PI staining based flow cytometry (reference value: 30.13 %); type: functional
SK-OV-3 [14] = assay: Induction of cell cycle arrest at G2/M phase in human SK-OV-3 cells at 1.25 nM incubated for 24 hrs by PI staining based flow cytometry (reference value: 30.13 %); type: functional
SK-OV-3 [15] = assay: Induction of cell cycle arrest at G2/M phase in human SK-OV-3 cells at 2.5 nM incubated for 24 hrs by PI staining based flow cytometry (reference value: 30.13 %); type: functional
SK-OV-3 [16] = assay: Induction of apoptosis in human SK-OV-3 cells assessed as viable cells at 0.625 nM incubated for 48 hrs by Annexin V-APC-A/7-AAD-A staining based flow cytometry (reference value: 97.50 %); type: functional; conditions: read-out: Activity
SK-OV-3 [17] = assay: Induction of apoptosis in human SK-OV-3 cells assessed as early apoptotic cells at 0.625 nM incubated for 48 hrs by Annexin V-APC-A/7-AAD-A staining based flow cytometry (reference value: 1.10 %); type: functional
SK-OV-3 [18] = assay: Induction of apoptosis in human SK-OV-3 cells assessed as late apoptotic cells at 0.625 nM incubated for 48 hrs by Annexin V-APC-A/7-AAD-A staining based flow cytometry (reference value: 1.20 %); type: functional
SK-OV-3 [19] = assay: Induction of apoptosis in human SK-OV-3 cells assessed as necrotic cells at 0.625 nM incubated for 48 hrs by Annexin V-APC-A/7-AAD-A staining based flow cytometry (reference value: 0.21 %); type: functional
SK-OV-3 [20] = assay: Induction of apoptosis in human SK-OV-3 cells assessed as viable cells at 1.25 nM incubated for 48 hrs by Annexin V-APC-A/7-AAD-A staining based flow cytometry (reference value: 97.50 %); type: functional; conditions: read-out: Activity
SK-OV-3 [21] = assay: Induction of apoptosis in human SK-OV-3 cells assessed as necrotic cells at 1.25 nM incubated for 48 hrs by Annexin V-APC-A/7-AAD-A staining based flow cytometry (reference value: 0.21 %); type: functional
SK-OV-3 [22] = assay: Induction of apoptosis in human SK-OV-3 cells assessed as viable cells at 2.5 nM incubated for 48 hrs by Annexin V-APC-A/7-AAD-A staining based flow cytometry (reference value: 97.50 %); type: functional; conditions: read-out: Activity
SK-OV-3 [23] = assay: Induction of apoptosis in human SK-OV-3 cells assessed as early apoptotic cells at 2.5 nM incubated for 48 hrs by Annexin V-APC-A/7-AAD-A staining based flow cytometry (reference value: 1.10 %); type: functional
SK-OV-3 [24] = assay: Induction of apoptosis in human SK-OV-3 cells assessed as late apoptotic cells at 2.5 nM incubated for 48 hrs by Annexin V-APC-A/7-AAD-A staining based flow cytometry (reference value: 1.20 %); type: functional
SK-OV-3 [25] = assay: Induction of apoptosis in human SK-OV-3 cells assessed as necrotic cells at 2.5 nM incubated for 48 hrs by Annexin V-APC-A/7-AAD-A staining based flow cytometry (reference value: 0.21 %); type: functional
SK-OV-3 [26] = assay: Induction of apoptosis in human SK-OV-3 cells assessed as viable cells at 5 nM incubated for 48 hrs by Annexin V-APC-A/7-AAD-A staining based flow cytometry (reference value: 97.50 %); type: functional; conditions: read-out: Activity
SK-OV-3 [27] = assay: Induction of apoptosis in human SK-OV-3 cells assessed as early apoptotic cells at 5 nM incubated for 48 hrs by Annexin V-APC-A/7-AAD-A staining based flow cytometry (reference value: 1.10 %); type: functional
SK-OV-3 [28] = assay: Induction of apoptosis in human SK-OV-3 cells assessed as necrotic cells at 5 nM incubated for 48 hrs by Annexin V-APC-A/7-AAD-A staining based flow cytometry (reference value: 0.21 %); type: functional
SK-OV-3 [29] = assay: Inhibition of cell migration in human SK-OV-3 cells assessed as relative wound density at 0.625 nM incubated for 24 hrs by wound healing assay (reference value: 61.61 %); type: functional; parameters: scale not given: the % may be the effect or the level left
SK-OV-3 [30] = assay: Inhibition of cell migration in human SK-OV-3 cells assessed as relative wound density at 1.25 nM incubated for 24 hrs by wound healing assay (reference value: 61.61 %); type: functional; parameters: scale not given: the % may be the effect or the level left
SK-OV-3 [31] = assay: Inhibition of cell migration in human SK-OV-3 cells assessed as relative wound density at 5 nM incubated for 24 hrs by wound healing assay (reference value: 61.61 %); type: functional; parameters: scale not given: the % may be the effect or the level left

For `COc1ccc2c(c1)NC(=O)CN2c1nc(Cl)nc2ccsc12`, the Kd (Tubulin) was 24.4 µM, the Activity (SK-OV-3 [1]) was 41.72% and the Activity (SK-OV-3 [2]) was 88.2%. It also gave an Activity (SK-OV-3 [3]) of 88.67%, a viability at 0.000625 µM (SK-OV-3 [4]) of 81% and an Activity (SK-OV-3 [5]) of 15.61%. The viability at 0.00125 µM (SK-OV-3 [6]) was 54.3%, the Activity (SK-OV-3 [7]) was 4.64% and the Activity (SK-OV-3 [8]) was 2.6%. For the same compound, the Activity (SK-OV-3 [9]) was 39.07%, the Activity (SK-OV-3 [10]) was 4.71% and the Activity (SK-OV-3 [11]) was 2.32%. It also gave an Activity (SK-OV-3 [12]) of 67.94%.

`COc1ccc(N(C)c2nc(Cl)nc3ccn(C)c23)cc1` showed an Activity (SK-OV-3 [13]) of 32.3%, an Activity (SK-OV-3 [14]) of 34.62% and an Activity (SK-OV-3 [15]) of 52.19%. It also gave a viability at 0.000625 µM (SK-OV-3 [16]) of 96.2%, an Activity (SK-OV-3 [17]) of 1.53% and an Activity (SK-OV-3 [18]) of 1.93%. The Activity (SK-OV-3 [19]) was 0.33%, the viability at 0.00125 µM (SK-OV-3 [20]) was 94.1% and the Activity (SK-OV-3 [21]) was 0.56%. The viability at 0.0025 µM (SK-OV-3 [22]) was 75.9%, the Activity (SK-OV-3 [23]) was 20.62% and the Activity (SK-OV-3 [24]) was 2.27%. It also gave an Activity (SK-OV-3 [25]) of 1.17%, a viability at 0.005 µM (SK-OV-3 [26]) of 54% and an Activity (SK-OV-3 [27]) of 39.84%. It also gave an Activity (SK-OV-3 [28]) of 2.25%, an Activity (SK-OV-3 [29]) of 58.03% and an Activity (SK-OV-3 [30]) of 54.94%. The Activity (SK-OV-3 [31]) was 12.11%.
